Reference: ChEMBL document CHEMBL1201862, “PubChem BioAssay data set” (2004)
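Protocol summary: plate cells (96-well), add compound at 5 concentrations, incubate 48 h, interpolate endpoints linearly. At the GI50, growth is halved.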 Activity calls are given as the source filed them. Cut-off read from the data, not from the text of the source: active = GI50 up to about 1.1 µM and inactive = higher.

Tests used:
Test in all cases: growth of human tumour cells (NCI), 48 h
DMS-114 = test system: DMS-114
COLO 205 = test system: COLO 205
SK-MEL-28 = test system: SK-MEL-28
Malme-3M = test system: Malme-3M
UACC-62 = test system: UACC-62
OVCAR-4 = test system: OVCAR-4
SK-MEL-5 = test system: SK-MEL-5
SNB-78 = test system: SNB-78
RPMI-8226 = test system: RPMI-8226
XF498 = test system: XF498
LXFL 529 = test system: LXFL 529
786-0 = test system: 786-0
SF-295 = test system: SF-295
RXF 393 = test system: RXF 393
UACC-257 = test system: UACC-257
A498 = test system: A498
SK-OV-3 = test system: SK-OV-3
LOX IMVI = test system: LOX IMVI
U-251 = test system: U-251
M19-MEL = test system: M19-MEL
KM12 = test system: KM12
A549 = test system: A549
HCT-116 = test system: HCT-116
OVCAR-8 = test system: OVCAR-8
IGROV-1 = test system: IGROV-1
OVCAR-3 = test system: OVCAR-3
NCI-H460 = test system: NCI-H460
ACHN = test system: ACHN
UO-31 = test system: UO-31
SF-268 = test system: SF-268
EKVX = test system: EKVX
SW-620 = test system: SW-620
OVCAR-5 = test system: OVCAR-5
M14 = test system: M14
DLD-1 = test system: DLD-1
SN12C = test system: SN12C
DMS-273 = test system: DMS-273
NCI-H23 = test system: NCI-H23
HCT-15 = test system: HCT-15
HOP-62 = test system: HOP-62
RXF 631 = test system: RXF 631
SNB-19 = test system: SNB-19
CCRF-CEM = test system: CCRF-CEM
HL-60 = test system: HL-60
SNB-75 = test system: SNB-75
NCI-H522 = test system: NCI-H522
SF-539 = test system: SF-539
CAKI-1 = test system: CAKI-1
K562 = test system: K562
TK-10 = test system: TK-10
MOLT-4 = test system: MOLT-4
SK-MEL-2 = test system: SK-MEL-2
Hs-578T = test system: Hs-578T
MCF7 = test system: MCF7
HCC 2998 = test system: HCC 2998
T47D = test system: T47D
HT-29 = test system: HT-29
MDA-MB-231 = test system: MDA-MB-231
SR = test system: SR
NCI-H226 = test system: NCI-H226
HOP-92 = test system: HOP-92
DU-145 = test system: DU-145
MDA-MB-435 = test system: MDA-MB-435
BT-549 = test system: BT-549
HOP-18 = test system: HOP-18
KM-20L2 = test system: KM-20L2

Question: For `C=CCC1=C2CCCCC2CCC1=O` (configuration not stated), which GI50 (DMS-114) is on record?
Answer: > 100 µM (inactive)

Question: And the GI50 (COLO 205)?
Answer: > 100 µM (inactive)

Question: And the GI50 (SK-MEL-28)?
Answer: > 100 µM (inactive)

Question: What about the GI50 (Malme-3M) of the same compound?
Answer: > 100 µM (inactive)

Question: And the GI50 (UACC-62)?
Answer: > 100 µM (inactive)

Question: What about the GI50 (OVCAR-4) of the same compound?
Answer: > 100 µM (inactive)

Question: And the GI50 (SK-MEL-5)?
Answer: > 100 µM (inactive)

Question: And the GI50 (SNB-78)?
Answer: > 100 µM (inactive)

Question: What about the GI50 (RPMI-8226) of the same compound?
Answer: > 100 µM (inactive)

Question: What about the GI50 (XF498) of the same compound?
Answer: > 100 µM (inactive)

Question: And the GI50 (LXFL 529)?
Answer: > 100 µM (inactive)

Question: What about the GI50 (786-0) of the same compound?
Answer: > 100 µM (inactive)

Question: And the GI50 (SF-295)?
Answer: > 100 µM (inactive)

Question: And the GI50 (RXF 393)?
Answer: > 100 µM (inactive)

Question: And the GI50 (UACC-257)?
Answer: > 100 µM (inactive)

Question: What about the GI50 (A498) of the same compound?
Answer: > 100 µM (inactive)

Question: And the GI50 (SK-OV-3)?
Answer: > 100 µM (inactive)

Question: What about the GI50 (LOX IMVI) of the same compound?
Answer: > 100 µM (inactive)

Question: And the GI50 (U-251)?
Answer: > 100 µM (inactive)

Question: And the GI50 (M19-MEL)?
Answer: > 100 µM (inactive)

Question: And the GI50 (KM12)?
Answer: > 100 µM (inactive)

Question: What about the GI50 (A549) of the same compound?
Answer: > 100 µM (inactive)

Question: And the GI50 (HCT-116)?
Answer: > 100 µM (inactive)

Question: What about the GI50 (OVCAR-8) of the same compound?
Answer: > 100 µM (inactive)

Question: What about the GI50 (IGROV-1) of the same compound?
Answer: > 100 µM (inactive)

Question: What about the GI50 (OVCAR-3) of the same compound?
Answer: > 100 µM (inactive)

Question: And the GI50 (NCI-H460)?
Answer: > 100 µM (inactive)

Question: What about the GI50 (ACHN) of the same compound?
Answer: > 100 µM (inactive)

Question: What about the GI50 (UO-31) of the same compound?
Answer: > 100 µM (inactive)

Question: What about the GI50 (SF-268) of the same compound?
Answer: > 100 µM (inactive)

Question: What about the GI50 (EKVX) of the same compound?
Answer: > 100 µM (inactive)

Question: And the GI50 (SW-620)?
Answer: > 100 µM (inactive)

Question: And the GI50 (OVCAR-5)?
Answer: > 100 µM (inactive)

Question: What about the GI50 (M14) of the same compound?
Answer: > 100 µM (inactive)

Question: And the GI50 (DLD-1)?
Answer: > 100 µM (inactive)

Question: And the GI50 (SN12C)?
Answer: > 100 µM (inactive)

Question: And the GI50 (DMS-273)?
Answer: > 100 µM (inactive)

Question: And the GI50 (NCI-H23)?
Answer: > 100 µM (inactive)

Question: And the GI50 (HCT-15)?
Answer: > 100 µM

Question: And the GI50 (HOP-62)?
Answer: > 100 µM (inactive)

Question: What about the GI50 (RXF 631) of the same compound?
Answer: > 100 µM (inactive)

Question: What about the GI50 (SNB-19) of the same compound?
Answer: > 100 µM (inactive)

Question: What about the GI50 (CCRF-CEM) of the same compound?
Answer: > 100 µM (inactive)

Question: And the GI50 (HL-60)?
Answer: > 100 µM (inactive)

Question: And the GI50 (SNB-75)?
Answer: > 100 µM (inactive)

Question: And the GI50 (NCI-H522)?
Answer: > 100 µM (inactive)

Question: What about the GI50 (SF-539) of the same compound?
Answer: > 100 µM (inactive)

Question: What about the GI50 (CAKI-1) of the same compound?
Answer: > 100 µM (inactive)

Question: What about the GI50 (K562) of the same compound?
Answer: > 100 µM (inactive)

Question: What about the GI50 (TK-10) of the same compound?
Answer: > 100 µM (inactive)

Question: And the GI50 (MOLT-4)?
Answer: > 100 µM (inactive)

Question: And the GI50 (SK-MEL-2)?
Answer: > 100 µM (inactive)

Question: `CN(C)c1ccc(/C=C2\C[N+](C)(C)C/C(=C\c3ccc(N(C)C)cc3)C2=O)cc1` was tested. Which GI50 (Hs-578T) did it give?
Answer: 50 µM (inactive)

Question: What about the GI50 (DMS-114) of the same compound?
Answer: 7.53 µM (inactive)

Question: What about the GI50 (COLO 205) of the same compound?
Answer: 2.61 µM (inactive)

Question: And the GI50 (MCF7)?
Answer: 5.4 µM (inactive)

Question: What about the GI50 (SK-MEL-28) of the same compound?
Answer: 15.3 µM (inactive)

Question: What about the GI50 (Malme-3M) of the same compound?
Answer: 22.1 µM (inactive)

Question: And the GI50 (UACC-62)?
Answer: 13.6 µM (inactive)

Question: What about the GI50 (OVCAR-4) of the same compound?
Answer: 21.5 µM (inactive)

Question: And the GI50 (SK-MEL-5)?
Answer: 11.6 µM (inactive)

Question: What about the GI50 (SNB-78) of the same compound?
Answer: > 49.8 µM (inactive)

Question: What about the GI50 (HCC 2998) of the same compound?
Answer: 8.18 µM (inactive)

Question: What about the GI50 (RPMI-8226) of the same compound?
Answer: 3.47 µM (inactive)

Question: And the GI50 (XF498)?
Answer: > 10 µM (inactive)

Question: And the GI50 (LXFL 529)?
Answer: 7.55 µM (inactive)

Question: What about the GI50 (786-0) of the same compound?
Answer: 30.7 µM (inactive)

Question: What about the GI50 (T47D) of the same compound?
Answer: 16.5 µM (inactive)

Question: And the GI50 (SF-295)?
Answer: 31.6 µM (inactive)

Question: And the GI50 (HT-29)?
Answer: 9.18 µM (inactive)

Question: And the GI50 (RXF 393)?
Answer: > 48.2 µM (inactive)

Question: What about the GI50 (UACC-257) of the same compound?
Answer: 12.1 µM (inactive)

Question: What about the GI50 (A498) of the same compound?
Answer: > 100 µM (inactive)

Question: And the GI50 (SK-OV-3)?
Answer: 26.7 µM (inactive)

Question: What about the GI50 (LOX IMVI) of the same compound?
Answer: 14.9 µM (inactive)

Question: And the GI50 (U-251)?
Answer: 6.27 µM (inactive)

Question: And the GI50 (MDA-MB-231)?
Answer: 17.9 µM (inactive)

Question: And the GI50 (SR)?
Answer: 8.09 µM (inactive)

Question: What about the GI50 (M19-MEL) of the same compound?
Answer: 13.4 µM (inactive)

Question: And the GI50 (KM12)?
Answer: 6.14 µM (inactive)

Question: And the GI50 (A549)?
Answer: 20.7 µM (inactive)

Question: What about the GI50 (HCT-116) of the same compound?
Answer: 8.93 µM (inactive)

Question: And the GI50 (OVCAR-8)?
Answer: 23.9 µM (inactive)

Question: What about the GI50 (IGROV-1) of the same compound?
Answer: 8.57 µM (inactive)

Question: What about the GI50 (OVCAR-3) of the same compound?
Answer: 5.9 µM (inactive)

Question: What about the GI50 (NCI-H460) of the same compound?
Answer: 13.6 µM (inactive)

Question: What about the GI50 (ACHN) of the same compound?
Answer: 70.5 µM (inactive)

Question: What about the GI50 (UO-31) of the same compound?
Answer: > 100 µM (inactive)

Question: And the GI50 (SF-268)?
Answer: 19.2 µM (inactive)

Question: And the GI50 (EKVX)?
Answer: 38 µM (inactive)

Question: What about the GI50 (SW-620) of the same compound?
Answer: 15.3 µM (inactive)

Question: What about the GI50 (OVCAR-5) of the same compound?
Answer: 38.9 µM (inactive)

Question: And the GI50 (M14)?
Answer: 20.3 µM (inactive)

Question: And the GI50 (NCI-H226)?
Answer: 30.5 µM (inactive)

Question: And the GI50 (DLD-1)?
Answer: 35.9 µM (inactive)

Question: And the GI50 (HOP-92)?
Answer: 19.4 µM (inactive)

Question: What about the GI50 (SN12C) of the same compound?
Answer: 20.5 µM (inactive)

Question: What about the GI50 (DMS-273) of the same compound?
Answer: 5.25 µM (inactive)

Question: What about the GI50 (DU-145) of the same compound?
Answer: 31.3 µM (inactive)

Question: What about the GI50 (NCI-H23) of the same compound?
Answer: 17.7 µM (inactive)

Question: What about the GI50 (MDA-MB-435) of the same compound?
Answer: 12.1 µM (inactive)

Question: And the GI50 (HCT-15)?
Answer: > 100 µM

Question: What about the GI50 (HOP-62) of the same compound?
Answer: 42.8 µM (inactive)

Question: What about the GI50 (SNB-19) of the same compound?
Answer: 17.5 µM (inactive)

Question: What about the GI50 (BT-549) of the same compound?
Answer: 10.5 µM (inactive)

Question: What about the GI50 (CCRF-CEM) of the same compound?
Answer: 9.53 µM (inactive)

Question: What about the GI50 (HL-60) of the same compound?
Answer: 2.47 µM (inactive)

Question: What about the GI50 (SNB-75) of the same compound?
Answer: 17.1 µM (inactive)

Question: And the GI50 (NCI-H522)?
Answer: 9.66 µM (inactive)

Question: What about the GI50 (SF-539) of the same compound?
Answer: 21.1 µM (inactive)

Question: And the GI50 (CAKI-1)?
Answer: > 100 µM (inactive)

Question: What about the GI50 (K562) of the same compound?
Answer: 7.98 µM (inactive)

Question: And the GI50 (HOP-18)?
Answer: 37.1 µM (inactive)

Question: What about the GI50 (TK-10) of the same compound?
Answer: 78.7 µM (inactive)

Question: And the GI50 (KM-20L2)?
Answer: 12.9 µM (inactive)

Question: And the GI50 (MOLT-4)?
Answer: 13.6 µM (inactive)

Question: And the GI50 (SK-MEL-2)?
Answer: 14.9 µM (inactive)
